Results as given in publication PMC9666459, “Crystal structure of semi-synthetic obelin-v after calcium induced bioluminescence implies coelenteramine as the main reaction product” (Scientific Reports, 2022).

How the values were obtained:
[1] = biological target: T1, obelin (apo-obelin; obelin-v when charged with CTZ-v) (Obelia longissima, UniProt Q27709); test: charging of apo-obelin, Ca2+ discharge, then fluorescence and structure of discharged protein; assay type: biochemical; conditions: O2, Ca2+; charging overnight with twofold molar excess in 5 mM EDTA, 10 mM DTT, 20 mM Tris-HCl pH 7.2, 4 °C
T1 construct: Ca2+-discharged form; two molecules per asymmetric unit
T1 sequence (Q27709 1-195): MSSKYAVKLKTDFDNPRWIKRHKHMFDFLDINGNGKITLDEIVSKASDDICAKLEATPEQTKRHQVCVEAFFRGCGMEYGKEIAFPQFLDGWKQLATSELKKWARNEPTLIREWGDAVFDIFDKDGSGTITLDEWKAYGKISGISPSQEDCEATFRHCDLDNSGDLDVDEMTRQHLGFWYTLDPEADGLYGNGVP

[2] = biological target: T1, obelin (apo-obelin; obelin-v when charged with CTZ-v); test: charging of apo-obelin, Ca2+ discharge, then fluorescence of discharged protein; assay type: biochemical; conditions: O2, Ca2+; charging overnight with twofold molar excess in 5 mM EDTA, 10 mM DTT, 20 mM Tris-HCl pH 7.2, 4 °C

SMILES	charging of apo-obelin, Ca2+ discharge, then fluorescence and structure of disch [1]	charging of apo-obelin, Ca2+ discharge, then fluorescence of discharged protein [2]
O=c1c(Cc2ccc(O)cc2)nc2c(Cc3ccccc3)[nH]c3c4ccc(O)cc4ccc3n1-2 [CTZ-v]	apo-obelin was incubated overnight with a twofold molar excess of CTZ or CTZ-v	
Oc1ccc(Cc2nc3c(Cc4ccccc4)nc(-c4ccc(O)cc4)cn3c2O)cc1 [CTZ]		apo-obelin was incubated overnight with a twofold molar excess of CTZ or CTZ-v
